Source: patent US4260745A, “3-Halo cephalosporins” (Eli Lilly and Company, priority 1979, dated 1981)
Where a name gives a salt, the structure may show the parent alone. Read-outs that look alike come from different tables or passages of the source.

Assay: Electrometric titration
Assay type: physicochemical
[1] = 66% aqueous dmf, only or first pKa, read-out: pKa

Row | pKa [1] | pKa (60% aqueous dmf, 60% aq. DMF, first group, read-out: titratable groups) | pKa (60% aqueous dmf, 60% aq. DMF, second group, read-out: titratable groups) | SMILES
1 | 5.6 |  |  | COC(=O)C1=C(O)CS[C@@H]2C(NC(=O)COc3ccccc3)C(=O)N12 (some centres unmarked) [Example 9, Methyl 7-phenoxyacetamido-3-hydroxy-3-cephem-4-carboxylate]
2 | 5.9 |  |  | O=C(Cc1cccs1)NC1C(=O)N2C(C(=O)OCc3ccc([N+](=O)[O-])cc3)=C(O)CS[C@H]12 (some centres unmarked) [Example 12, p-Nitrobenzyl 7-[2-(2-thienyl)acetamido]-3-hydroxy-3-cephem-4-carboxylate]
3 | 5.9 |  |  | CC(=O)NC1C(=O)N2C(C(=O)OCc3ccc([N+](=O)[O-])cc3)=C(O)CS[C@H]12 (some centres unmarked) [Example 13, p-Nitrobenzyl 7-acetamido-3-hydroxy-3-cephem-4-carboxylate]
4 |  | 4.5 | 6.5 | NC1C(=O)N2C(C(=O)OC(c3ccccc3)c3ccccc3)=C(O)CS[C@H]12 (some centres unmarked) [diphenylmethyl 7-amino-3-hydroxy-3-cephem-4-carboxylate hydrochloride]
